Measured values from paper PMC6872167, “An odorant receptor from Anopheles gambiae that demonstrates enantioselectivity to the plant volatile, linalool” (PLoS ONE, 2019).

How the values were obtained:
[1] = target: T1, Odorant receptor 29 (AgamOr29) (Anopheles gambiae, UniProt A0A1S4H074); experiment: two-electrode voltage clamp of Xenopus oocytes, single concentration […]; format: cell-based
T1 construct: coding region, expressed with AgamOrco in Xenopus laevis oocytes; with AgamOrco
T1 sequence (A0A1S4H074 1-384): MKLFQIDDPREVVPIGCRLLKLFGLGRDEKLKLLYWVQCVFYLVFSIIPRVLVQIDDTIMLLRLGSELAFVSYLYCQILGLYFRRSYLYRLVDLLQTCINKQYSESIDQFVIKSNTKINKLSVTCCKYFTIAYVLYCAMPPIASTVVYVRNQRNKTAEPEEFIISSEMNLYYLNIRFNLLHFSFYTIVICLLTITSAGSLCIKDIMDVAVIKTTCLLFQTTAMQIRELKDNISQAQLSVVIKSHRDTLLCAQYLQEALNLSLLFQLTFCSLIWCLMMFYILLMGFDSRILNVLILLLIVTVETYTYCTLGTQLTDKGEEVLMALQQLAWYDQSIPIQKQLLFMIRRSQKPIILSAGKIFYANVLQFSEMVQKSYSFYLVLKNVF
T1 sequence (Q7QCC7 1-478 partner): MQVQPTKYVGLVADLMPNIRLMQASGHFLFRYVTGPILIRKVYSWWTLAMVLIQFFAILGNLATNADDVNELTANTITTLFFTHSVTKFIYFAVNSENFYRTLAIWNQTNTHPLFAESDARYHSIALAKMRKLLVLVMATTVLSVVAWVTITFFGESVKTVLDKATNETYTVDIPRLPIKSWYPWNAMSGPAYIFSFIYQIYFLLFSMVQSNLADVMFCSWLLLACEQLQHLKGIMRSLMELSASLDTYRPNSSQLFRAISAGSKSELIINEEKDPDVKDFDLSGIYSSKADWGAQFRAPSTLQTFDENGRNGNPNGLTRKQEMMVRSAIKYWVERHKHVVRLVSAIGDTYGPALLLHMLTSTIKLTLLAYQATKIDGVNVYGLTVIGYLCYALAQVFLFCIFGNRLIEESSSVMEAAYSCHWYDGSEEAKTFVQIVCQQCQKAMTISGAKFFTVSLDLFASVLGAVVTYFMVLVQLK

[2] = target: T1, Odorant receptor 29 (AgamOr29); experiment: two-electrode voltage clamp of Xenopus oocytes, concentration-response; format: cell-based
Source text: two-electrode voltage clamp of Xenopus oocytes, concentration-response on Odorant receptor 29 (AgamOr29) | to (R)-(–)-linalool (left)and (+/–) linalool (right).

| Structure (SMILES) | two-electrode voltage clamp of Xenopus oocytes, single concentration 10^-4 M [1] | EC50 [2] |
| --- | --- | --- |
| CCC(C)(O)CCCC(C)C (stereo not drawn) [tetrahydro linalool] | tetrahydro linalool elicited a moderate, but repeatable response from AgamOr29, likely due to its structural similarity to linalool |  |
| C=C[C@](C)(O)CCC=C(C)C [(R)-(–)-linalool] |  | ~8 µM |
| C=CC(C)(O)CCC=C(C)C (racemic) [(+/–) linalool] |  | ~5.7 µM |
